Test results: patent publication US8338597B2, “Pyridones useful as inhibitors of kinases” (Vertex Pharmaceuticals Incorporated, priority 2004, dated 2012)

biological target: T1, Itk (Homo sapiens, UniProt Q08881); assay: ITK inhibition assay, radioactive-phosphate incorporation; type: biochemical; conditions: [γ-33P]ATP, SAM68 peptide, 25° C.
T1 sequence (Q08881 1-620): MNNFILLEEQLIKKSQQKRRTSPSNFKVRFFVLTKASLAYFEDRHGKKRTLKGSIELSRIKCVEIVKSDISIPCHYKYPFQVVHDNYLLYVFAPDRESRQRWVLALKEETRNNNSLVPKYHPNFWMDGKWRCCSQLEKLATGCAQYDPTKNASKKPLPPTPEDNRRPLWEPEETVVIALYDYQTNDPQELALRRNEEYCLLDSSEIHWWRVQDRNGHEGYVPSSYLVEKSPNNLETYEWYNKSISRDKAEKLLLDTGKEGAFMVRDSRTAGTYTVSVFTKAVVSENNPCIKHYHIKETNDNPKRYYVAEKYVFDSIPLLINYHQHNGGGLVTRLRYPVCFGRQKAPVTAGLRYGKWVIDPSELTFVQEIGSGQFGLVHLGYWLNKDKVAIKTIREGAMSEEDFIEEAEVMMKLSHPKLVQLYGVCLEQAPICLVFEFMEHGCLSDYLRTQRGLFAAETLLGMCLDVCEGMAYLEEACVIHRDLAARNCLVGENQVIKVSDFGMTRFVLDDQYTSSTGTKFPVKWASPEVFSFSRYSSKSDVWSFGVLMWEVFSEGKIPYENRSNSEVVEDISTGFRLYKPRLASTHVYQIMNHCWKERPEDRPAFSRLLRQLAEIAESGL
Experimental: Assays were carried out in a mixture of 20 mM MOPS (pH 7.0), 10 mM MgCl2, 0.1% BSA and 1 mM DTT. […] Assays were carried out at 25° C. in the presence of 50 nM Itk. An assay stock buffer solution was prepared containing all of the reagents listed above, with the exception of ATP and the test compound of interest.
The reaction was stopped after 10 minutes by the addition of […] 0.2M phosphoric acid+0.01% TWEEN 20. A multiscreen phosphocellulose filter 96-well plate (Millipore, Cat no. MAPHN0B50) was pretreated with 100 μL 0.2M phosphoric acid+0.01% TWEEN 20 prior to the addition of […] of the stopped assay mixture. The plate was washed with 4×200 μL 0.2M phosphoric acid+0.01% TWEEN 20.
Ki(app) data were calculated from non-linear regression analysis of the initial rate data using the Prism software package (GraphPad Prism version 3.0cx for Macintosh, GraphPad Software, San Diego Calif., USA).

Row | SMILES | Ki
1 | CCN1CCCC1CNc1cccc(-c2c[nH]c(=O)c(NC(=O)c3ccc(N4CCCCC4)cc3)c2)n1 (stereo not shown) [II-120] | 100 to 1000 nM
2 | O=C(Nc1cc(-c2ccccn2)c[nH]c1=O)c1ccc(N2CCCCC2)cc1 [II-140] | 100 to 1000 nM
3 | CCc1ccc(NC(=O)c2cc(-c3ccncc3)c[nH]c2=O)cc1 [III-7] | 100 to 1000 nM
4 | CNCCNc1nccc(-c2c[nH]c(=O)c(NC(=O)c3ccc(C(C)(C)C)cc3)c2)n1 [II-20] | < 100 nM
5 | C[C@H](CN)Nc1cccc(-c2c[nH]c(=O)c(NC(=O)c3ccc(N4CCCCC4)cc3)c2)n1 [II-129] | < 100 nM
6 | O=C(Nc1ccc(N2CCNCC2)cc1)c1cc(-c2ccncc2)c[nH]c1=O [III-54] | < 100 nM
7 | CNc1cc(-c2c[nH]c(=O)c(NC(=O)c3ccc(N4C[C@@H](C)N[C@@H](C)C4)cc3)c2)ncn1 [II-135] | < 100 nM
8 | CC(=O)NCCNc1cccc(-c2c[nH]c(=O)c(NC(=O)c3ccc(N4CCCCC4)cc3)c2)n1 [II-101] | 100 to 1000 nM
9 | CNc1cncc(-c2c[nH]c(=O)c(NC(=O)c3ccc(OCCCN4CCCCC4)cc3)c2)n1 [II-177] | < 100 nM
10 | CNc1cncc(-c2c[nH]c(=O)c(NC(=O)c3ccc(N4CCNCC4)cc3)c2)n1 [II-139] | < 100 nM
11 | CCN1CCN(c2ccc(NC(=O)c3cc(-c4ccncc4)c[nH]c3=O)cc2)CC1 [III-47] | < 100 nM
12 | CNCCN(C)c1cccc(-c2c[nH]c(=O)c(NC(=O)c3ccc(N4CCCCC4)cc3)c2)n1 [II-95] | 100 to 1000 nM
13 | CNc1cccc(-c2c[nH]c(=O)c(NC(=O)c3ccc(OCCN4CCNCC4)cc3)c2)n1 [II-138] | < 100 nM
14 | CCOc1nccc(-c2c[nH]c(=O)c(NC(=O)c3ccc(N4CCCCC4)cc3)c2)n1 [II-57] | 100 to 1000 nM
15 | CCOc1ccc(NC(=O)c2cc(-c3ccncc3)c[nH]c2=O)cc1 [III-45] | 100 to 1000 nM
16 | CNc1cncc(-c2c[nH]c(=O)c(NC(=O)c3ccc(N(C)CCCN(C)C)cc3)c2)n1 [II-167] | < 100 nM
17 | CN1CCN(c2ccc(NC(=O)c3cc(-c4ccncc4)c[nH]c3=O)cc2)CC1 [III-46] | < 100 nM
18 | CC(C)(C)c1ccc(C(=O)Nc2cc(-c3cc(N[C@@H]4CCNC4)ncn3)c[nH]c2=O)cc1 [II-39] | 100 to 1000 nM
19 | CCNc1nccc(-c2c[nH]c(=O)c(NC(=O)c3ccc(C(C)(C)C)cc3)c2)n1 [II-22] | < 100 nM
20 | CNc1cc(-c2c[nH]c(=O)c(NC(=O)c3ccc(N4CCNCC4)cc3)c2)ccn1 [II-169] | < 100 nM
21 | CCc1cc(-c2c[nH]c(=O)c(NC(=O)c3ccc(N4CCCCC4)cc3)c2)nc(NC)n1 [II-66] | < 100 nM
22 | O=C(Nc1cc(-c2ccncc2)c[nH]c1=O)c1ccc(Br)cc1 [Compound I-20, 4-Bromo-N-(1,2-dihydro-2-oxo-5-(pyridin-4-yl)pyridin-3-yl)benzamide] | 100 to 1000 nM
23 | CNc1cncc(-c2c[nH]c(=O)c(NC(=O)c3ccc(N4CCC[C@H]4CO)cc3)c2)n1 [II-147] | < 100 nM
24 | COc1ccc(NC(=O)c2cc(-c3ccncc3)c[nH]c2=O)cc1 [III-11] | 100 to 1000 nM

Row | SMILES | Ki
25 | O=C(Nc1cc(-c2ccncc2)c[nH]c1=O)c1ccc(N2CCC(O)CC2)cc1 [Compound I-72] | 100 to 1000 nM
26 | O=C(Nc1cc(-c2cccc(NCC3CCNCC3)n2)c[nH]c1=O)c1ccc(N2CCCCC2)cc1 [II-105] | 100 to 1000 nM
27 | O=C(Nc1cc(-c2ccnc(NCCO)n2)c[nH]c1=O)c1ccc(N2CCCCC2)cc1 [II-59] | 100 to 1000 nM
28 | N#Cc1cncc(-c2c[nH]c(=O)c(NC(=O)c3ccc(N4CCC[C@H]4CN4CCCC4)cc3)c2)c1 [II-154] | 100 to 1000 nM
29 | CNc1cccc(-c2c[nH]c(=O)c(NC(=O)c3ccc(OCCC4CCNCC4)cc3)c2)n1 [II-134] | < 100 nM
30 | CNc1ncc(C)c(-c2c[nH]c(=O)c(NC(=O)c3ccc(C(C)(C)C)cc3)c2)n1 [II-62] | 100 to 1000 nM
31 | CNc1cccc(-c2c[nH]c(=O)c(NC(=O)c3ccc(OCC4CCNCC4)cc3)c2)n1 [II-157] | < 100 nM
32 | CC(C)[C@@H](CO)Nc1cccc(-c2c[nH]c(=O)c(NC(=O)c3ccc(N4CCCCC4)cc3)c2)n1 [II-108] | 100 to 1000 nM
33 | CC(C)(C)c1ccc(C(=O)Nc2cc(-c3ccncn3)c[nH]c2=O)cc1 [II-34] | 100 to 1000 nM
34 | CNc1cncc(-c2c[nH]c(=O)c(NC(=O)c3ccc(N4CCC[C@H]4CN4CCCC4)cc3)c2)n1 [II-145] | < 100 nM
35 | CC(C)Oc1ccc(C(=O)Nc2cc(-c3ccncc3)c[nH]c2=O)cc1 [Compound I-21] | 100 to 1000 nM
36 | O=C(Nc1cc(-c2ccncc2)c[nH]c1=O)c1ccc(N2CCOCC2)cc1 [Compound I-73] | 100 to 1000 nM
37 | CNc1nccc(-c2c[nH]c(=O)c(NC(=O)c3ccc(OCc4ccccc4)cc3)c2)n1 [II-97] | < 100 nM
38 | CNc1nccc(-c2c[nH]c(=O)c(NC(=O)c3ccc(NCCCN)cc3)c2)n1 [II-107] | < 100 nM
39 | CNc1cc(-c2c[nH]c(=O)c(NC(=O)c3ccc(N4CCC[C@H]4CN4CCCC4)cc3)c2)ccn1 [II-172] | < 100 nM
40 | CC(C)[C@H](CO)Nc1cccc(-c2c[nH]c(=O)c(NC(=O)c3ccc(N4CCCCC4)cc3)c2)n1 [II-132] | 100 to 1000 nM
41 | CNCCOc1nccc(-c2c[nH]c(=O)c(NC(=O)c3ccc(N4CCCCC4)cc3)c2)n1 [II-76] | 100 to 1000 nM
42 | CC(C)(C)C(CO)Nc1cccc(-c2c[nH]c(=O)c(NC(=O)c3ccc(N4CCCCC4)cc3)c2)n1 (stereo not shown) [II-133] | 100 to 1000 nM
43 | O=C(Nc1ccc(N2CCC(O)CC2)cc1)c1cc(-c2ccncc2)c[nH]c1=O [III-52] | < 100 nM
44 | CNC(=O)c1cccc(-c2c[nH]c(=O)c(NC(=O)c3ccc(N4CCCCC4)cc3)c2)n1 [II-124] | 100 to 1000 nM
45 | COCCCN1CCN(c2ccc(C(=O)Nc3cc(-c4ccncc4)c[nH]c3=O)cc2)CC1 [Compound I-77] | < 100 nM
46 | CNc1nccc(-c2c[nH]c(=O)c(NC(=O)c3ccccc3)c2)n1 [II-64] | < 100 nM
47 | CNc1cncc(-c2c[nH]c(=O)c(NC(=O)c3ccc(NCCN4CCCC4)cc3)c2)n1 [II-162] | < 100 nM
48 | COCCNc1cccc(-c2c[nH]c(=O)c(NC(=O)c3ccc(N4CCCCC4)cc3)c2)n1 [II-71] | 100 to 1000 nM

Row | SMILES | Ki
49 | CNCCNc1cccc(-c2c[nH]c(=O)c(NC(=O)c3ccc(N4CCCCC4)cc3)c2)n1 [II-60] | 100 to 1000 nM
50 | O=C(Nc1ccc(C2CCCCC2)cc1)c1cc(-c2ccncc2)c[nH]c1=O [III-43] | 100 to 1000 nM
51 | CCNc1cncc(-c2c[nH]c(=O)c(NC(=O)c3ccc(N4CCC[C@H]4CN4CCCC4)cc3)c2)n1 [II-175] | 100 to 1000 nM
52 | CN(C)c1ccc(C(=O)Nc2cc(-c3ccncc3)c[nH]c2=O)cc1 [Compound I-45] | 100 to 1000 nM
53 | CNc1cncc(-c2c[nH]c(=O)c(NC(=O)c3ccc(N(C)CCc4cnc[nH]4)cc3)c2)n1 [II-165] | < 100 nM
54 | CC[C@@H](CO)Nc1cccc(-c2c[nH]c(=O)c(NC(=O)c3ccc(N4CCCCC4)cc3)c2)n1 [II-151] | 100 to 1000 nM
55 | CC(C)Nc1nccc(-c2c[nH]c(=O)c(NC(=O)c3ccc(C(C)(C)C)cc3)c2)n1 [II-23] | < 100 nM
56 | O=C(Nc1cc(-c2ccncc2)c[nH]c1=O)c1ccc(Oc2ccccc2)cc1 [Compound I-22] | 100 to 1000 nM
57 | O=C(Nc1cc(-c2ccncc2)c[nH]c1=O)c1ccc(OCc2ccccc2)cc1 [Compound I-46] | 100 to 1000 nM
58 | CNc1cncc(-c2c[nH]c(=O)c(NC(=O)c3ccc(OCCN4CCNCC4)cc3)c2)n1 [II-158] | < 100 nM
59 | O=C(Nc1cc(-c2cccc(NC(CO)CO)n2)c[nH]c1=O)c1ccc(N2CCCCC2)cc1 [II-174] | 100 to 1000 nM
60 | O=C(Nc1cc(-c2cncc(NC3CC3)n2)c[nH]c1=O)c1ccc(N2CCC[C@H]2CN2CCCC2)cc1 [II-176] | 100 to 1000 nM
61 | O=C(Nc1cc(-c2cccc(NCCO)n2)c[nH]c1=O)c1ccc(N2CCCCC2)cc1 [II-70] | 100 to 1000 nM
62 | O=C(Nc1ccc(Br)cc1)c1cc(-c2ccncc2)c[nH]c1=O [III-8] | 100 to 1000 nM
63 | CNc1cccc(-c2c[nH]c(=O)c(NC(=O)c3ccc(N4CCCCC4)cc3)c2)c1 [II-69] | 100 to 1000 nM
64 | CNc1cc(-c2c[nH]c(=O)c(NC(=O)c3ccc(N4CCCCC4)cc3)c2)nc(NC)n1 [II-123] | 100 to 1000 nM
65 | CNc1cc(-c2c[nH]c(=O)c(NC(=O)c3ccc(OCCC4CCNCC4)cc3)c2)ncn1 [II-142] | < 100 nM
66 | O=C(Nc1cc(-c2ccncc2)c[nH]c1=O)c1ccc(N2CCNCC2)nc1 [II-100] | 100 to 1000 nM
67 | CNc1cc(-c2c[nH]c(=O)c(NC(=O)c3ccc(C4=CCNCC4)cc3)c2)ncn1 [II-137] | 100 to 1000 nM
68 | O=C(Nc1cc(-c2ccncc2)c[nH]c1=O)c1ccc(Cl)cc1 [Compound I-27] | 100 to 1000 nM
69 | CNc1cncc(-c2c[nH]c(=O)c(NC(=O)c3ccc(OCCCN4CCOCC4)cc3)c2)n1 [II-182] | < 100 nM
70 | CNc1cc(-c2c[nH]c(=O)c(NC(=O)c3ccc(N4CCNCC4)cc3)c2)ncn1 [II-126] | < 100 nM
